Assay results from PubChem BioAssay AID1259407 (Chemical Carcinogenesis Research Information System (CCRIS), 2018).
Activity calls are given as the source filed them. The rule behind the calls is not given here.

System: CCRIS mutagenicity, Ames/micronucleus/aberration tests
Assay: CCRIS mutagenicity studies
Conditions: Test System: AMES SALMONELLA TYPHIMURIUM, Method: PREINCUBATION
[1] = Strain/Indicator: TA97, Metabolic Activation: NONE

Measured: mutagenic call

N#CCc1ccccc1
inactive: Strain/Indicator: TA97, Metabolic Activation: HAMSTER, LIVER, S-9, AROCLOR 1254 (10%) inactive; negative | Strain/Indicator: TA97, Metabolic Activation: HAMSTER, LIVER, S-9, AROCLOR 1254 (30%) inactive; negative | [1] inactive; negative | Strain/Indicator: TA97, Metabolic Activation: RAT, LIVER, S-9, AROCLOR 1254 (5 OR 30%) inactive; negative | Strain/Indicator: TA97, Metabolic Activation: RAT, LIVER, S-9, AROCLOR 1254 (10%) inactive; negative | Strain/Indicator: TA98, Metabolic Activation: HAMSTER, LIVER, S-9, AROCLOR 1254 (10%) inactive; negative | Strain/Indicator: TA98, Metabolic Activation: HAMSTER, LIVER, S-9, AROCLOR 1254 (30%) inactive; negative | Strain/Indicator: TA98, Metabolic Activation: NONE inactive; negative | Strain/Indicator: TA98, Metabolic Activation: RAT, LIVER, S-9, AROCLOR 1254 (10%) inactive; negative | Strain/Indicator: TA98, Metabolic Activation: RAT, LIVER, S-9, AROCLOR 1254 (30%) inactive; negative | Strain/Indicator: TA100, Metabolic Activation: HAMSTER, LIVER, S-9, AROCLOR 1254 (10%) inactive; negative | Strain/Indicator: TA100, Metabolic Activation: HAMSTER, LIVER, S-9, AROCLOR 1254 (30%) inactive; negative | Strain/Indicator: TA100, Metabolic Activation: NONE inactive; negative | Strain/Indicator: TA100, Metabolic Activation: RAT, LIVER, S-9, AROCLOR 1254 (10%) inactive; negative | Strain/Indicator: TA100, Metabolic Activation: RAT, LIVER, S-9, AROCLOR 1254 (30%) inactive; negative | Strain/Indicator: TA1535, Metabolic Activation: HAMSTER, LIVER, S-9, AROCLOR 1254 (10%) inactive; negative | Strain/Indicator: TA1535, Metabolic Activation: HAMSTER, LIVER, S-9, AROCLOR 1254 (30%) inactive; negative | Strain/Indicator: TA1535, Metabolic Activation: NONE inactive; negative | Strain/Indicator: TA1535, Metabolic Activation: RAT, LIVER, S-9, AROCLOR 1254 (30%) inactive; negative | Strain/Indicator: TA1537, Metabolic Activation: HAMSTER, LIVER, S-9, AROCLOR 1254 (10%) inactive; negative | Strain/Indicator: TA1537, Metabolic Activation: HAMSTER, LIVER, S-9, AROCLOR 1254 (30%) inactive; negative | Strain/Indicator: TA1537, Metabolic Activation: NONE inactive; negative | Strain/Indicator: TA1537, Metabolic Activation: RAT, LIVER, S-9, AROCLOR 1254 (10%) inactive; negative | Strain/Indicator: TA1537, Metabolic Activation: RAT, LIVER, S-9, AROCLOR 1254 (30%) inactive; negative

CCN=C=S
inactive: [1] inactive; negative | Strain/Indicator: TA97, Metabolic Activation: RAT, LIVER, S-9, AROCLOR 1254 inactive; negative | Strain/Indicator: TA102, Metabolic Activation: NONE inactive; negative | Strain/Indicator: TA102, Metabolic Activation: RAT, LIVER, S-9, AROCLOR 1254 inactive; negative
